# Results: patent US20060223888A1, “Valproic acid analogues and pharmaceutical composition thereof” (priority 2002, published 2006)
# Tests used:
# [1] = tested on: PTZ-induced clonic seizures; test: PTZ85 assay, latency of clonic seizures; type: in vivo; details: 1800 micromoles, male cd1/cr mice
# Method: SCMET (PTZ85) Assay. Male CD1/CR mice weighing from 25-35 g are administrated test compounds (range of 5 doses) 15 minutes prior to PTZ. PTZ is administrated subcutaneously, just caudal to the cranium, at a dose of 85 mg/kg. Animals are then caged individually and observed for 15 minutes. The occurrence and latency to clonic and/or tonic convulsions are recorded. The mice are used once. Ten mice are used in each dose group. […] ED50 is determined from a graph of percentage protection vs log(dose) following the known method of Litchfield^18, where percentage protection refers to the percent of animals in each dose group which are protected against seizures. The compounds of interest were tested at an equivalent dose of 1800 micromoles on male cd1/cr mice using the PTZ85 Assay to induce clonic (repetitive seizures). Both the latency (time of seizure onset) and the number of animals protected increased with the size of the ring, or with increased lipophilicity.
# [2] = tested on: Maximal Electroshock (MES) seizures; test: Maximal electroshock (MES) test, rats, oral, time to peak effect; type: in vivo
# Method: Anticonvulsant testing was conducted at the antiepileptic screening facility of the National Institute for Neurological Disorders and Stroke in Rockville, Md. Initial tests were done in mice (i.p.) followed by oral and i.p. administration to rats. Neurotoxicity was evaluated with the rotarod test. Maximal electroshock (MES) and subcutaneous methylene tetrazole (SCMET) or pentylene tetrazole (PTZ) were the most common tests performed. Typical procedures are described below. MES Assay. Male CD1/CR mice weighing from 25-35 g are administrated test compounds 15 minutes prior to MES. Mice are challenged by pulsed electrical stimulation (50 mA, 0.4 s duration, pulse width 0.5 ms, 60 pulses/sec) via corneal electrodes to induce seizure. Mice are observed post-stimulation for the onset of tonic seizures, and considered to have a tonic seizure only if there is a prolonged extension (>90° from plane of body) of the hind legs. […] Ten mice are used in each group. A number of VPA analogues and their sodium salts were tested for their efficacy as anticonvulsants and for their toxicity using the MES Assay and rotarod test.
# [3] = tested on: rotarod test (neurotoxicity); test: Rotarod neurotoxicity test (TOX), rats, oral; type: in vivo
# Method: Anticonvulsant testing was conducted at the antiepileptic screening facility of the National Institute for Neurological Disorders and Stroke in Rockville, Md. Initial tests were done in mice (i.p.) followed by oral and i.p. administration to rats. Neurotoxicity was evaluated with the rotarod test. Maximal electroshock (MES) and subcutaneous methylene tetrazole (SCMET) or pentylene tetrazole (PTZ) were the most common tests performed. Typical procedures are described below.
# Rotorod Test. Acute drug induced neurotoxicity is detected in mice using the standard rotorod test. An untreated mouse, when placed on a 6 rpm rotation rod, can maintain its equilibrium for a prolonged period of time.
# A number of VPA analogues and their sodium salts were tested for their efficacy as anticonvulsants and for their toxicity using the MES Assay and rotarod test. In particular, the following compounds (as shown in the structures below) were tested: 332059U (sodium salt of VPA), 325071 (known compound, tested for comparison), 325073A (metabolite of VPA), 332060U (4,4-difluoro-2-propylpentanoate, fluorinated analogue of VPA), 341031, and 341032U (conjugated (E,Z)-2,3′-diene VPA analogues).
# [4] = tested on: Subcutaneous Methylene Tetrazole (SCMET) seizures; test: Subcutaneous methylene tetrazole (SCMET) test, rats, oral, time to peak effect; type: in vivo
compound,measurement,setting,value
O=C([O-])/C=C/C=C1CCCCC1.[Na+],Latency of Clonic Seizures,[1],661 s
same,Number of Mice Protected Against Clonic Seizures (Out of 10),[1],4
"CC/C=C(\C=C(C)C)C(=O)[O-].[Na+] [341032U, Sodium (2E)-2-(2-methylprop-1-en-1-yl)pent-2-enoate]",MES N/F = number of animals protected relative to number tested,"[2]; 200 mg/kg, 0.25 h",4/4
same,MES N/F = number of animals protected relative to number tested,"[2]; 200 mg/kg, 0.5 h",3/4
same,MES N/F = number of animals protected relative to number tested,"[2]; 200 mg/kg, 1.0 h",1/4
same,MES N/F = number of animals protected relative to number tested,"[2]; 200 mg/kg, 2.0 h",0/4
same,MES N/F = number of animals protected relative to number tested,"[2]; 200 mg/kg, 4.0 h",0/4
same,Anticonvulsant potency compared with VPA (in words),[2]; summary of Table 2,more potent than VPA
same,TOX: N/F = number of animals that failed the rotarod test to numbers tested,"[3]; 200 mg/kg, 0.25 h",3/4
same,TOX: N/F = number of animals that failed the rotarod test to numbers tested,"[3]; 200 mg/kg, 0.5 h",4/4
same,TOX: N/F = number of animals that failed the rotarod test to numbers tested,"[3]; 200 mg/kg, 1.0 h",1/4
same,TOX: N/F = number of animals that failed the rotarod test to numbers tested,"[3]; 200 mg/kg, 2.0 h",0/4
same,TOX: N/F = number of animals that failed the rotarod test to numbers tested,"[3]; 200 mg/kg, 4.0 h",0/4
"CCCC(CC(C)(F)F)C(=O)[O-].[Na+] (stereo not shown) [332060U, Sodium 4,4-difluoro-2-propylpentanoate]",SCMET N/F = number of animals protected relative to number tested,"[4]; 100 mg/kg, 0.25 h",1/4
same,SCMET N/F = number of animals protected relative to number tested,"[4]; 100 mg/kg, 0.5 h",1/4
same,SCMET N/F = number of animals protected relative to number tested,"[4]; 100 mg/kg, 1.0 h",0/4
same,SCMET N/F = number of animals protected relative to number tested,"[4]; 100 mg/kg, 2.0 h",0/4
same,SCMET N/F = number of animals protected relative to number tested,"[4]; 100 mg/kg, 4.0 h",0/4
same,SCMET N/F = number of animals protected relative to number tested,"[4]; 200 mg/kg, 0.25 h",1/4
same,SCMET N/F = number of animals protected relative to number tested,"[4]; 200 mg/kg, 0.5 h",1/4
same,SCMET N/F = number of animals protected relative to number tested,"[4]; 360 mg/kg, 0.25 h",3/4
same,SCMET N/F = number of animals protected relative to number tested,"[4]; 360 mg/kg, 0.5 h",0/4
same,SCMET N/F = number of animals protected relative to number tested,"[4]; 360 mg/kg, 1.0 h",2/4
same,SCMET N/F = number of animals protected relative to number tested,"[4]; 360 mg/kg, 2.0 h",1/4
same,SCMET N/F = number of animals protected relative to number tested,"[4]; 360 mg/kg, 4.0 h",0/4
same,Anticonvulsant efficacy in relation to neurotoxicity (in words),[4]; summary of Table 2,effective at doses that do not demonstrate neurotoxicity
same,TOX: N/F = number of animals that failed the rotarod test to numbers tested,"[3]; 100 mg/kg, 0.25 h",0/4
same,TOX: N/F = number of animals that failed the rotarod test to numbers tested,"[3]; 100 mg/kg, 0.5 h",0/4
same,TOX: N/F = number of animals that failed the rotarod test to numbers tested,"[3]; 100 mg/kg, 1.0 h",0/4
same,TOX: N/F = number of animals that failed the rotarod test to numbers tested,"[3]; 100 mg/kg, 2.0 h",0/4
same,TOX: N/F = number of animals that failed the rotarod test to numbers tested,"[3]; 100 mg/kg, 4.0 h",0/4
same,TOX: N/F = number of animals that failed the rotarod test to numbers tested,"[3]; 200 mg/kg, 0.25 h",0/4
same,TOX: N/F = number of animals that failed the rotarod test to numbers tested,"[3]; 200 mg/kg, 0.5 h",0/4
same,TOX: N/F = number of animals that failed the rotarod test to numbers tested,"[3]; 360 mg/kg, 0.25 h",0/4
same,TOX: N/F = number of animals that failed the rotarod test to numbers tested,"[3]; 360 mg/kg, 0.5 h",0/4
same,TOX: N/F = number of animals that failed the rotarod test to numbers tested,"[3]; 360 mg/kg, 1.0 h",0/4
same,TOX: N/F = number of animals that failed the rotarod test to numbers tested,"[3]; 360 mg/kg, 2.0 h",0/4
same,TOX: N/F = number of animals that failed the rotarod test to numbers tested,"[3]; 360 mg/kg, 4.0 h",0/4
"O=C(O)/C=C\C=C1CCCCCCC1 [Compound 42d, (2Z)-4-Cyclooctylidenebut-2-enoic Acid]",melting point,,110 to 112 °C
"O=C(O)/C=C/C=C1CCCC1 [Compound 41a, (2E)-4-Cyclopentylidenebut-2-enoic Acid]",melting point,,112 to 114 °C
"C/C=C\C(=C/C)C(=O)[O-].[Na+] [325071A, Sodium (2E,3Z)-2-ethylidenpent-3-enoate]",SCMET N/F = number of animals protected relative to number tested,"[4]; 80 mg/kg, 0.25 h",0/4
same,SCMET N/F = number of animals protected relative to number tested,"[4]; 80 mg/kg, 0.5 h",0/4
same,SCMET N/F = number of animals protected relative to number tested,"[4]; 80 mg/kg, 1.0 h",1/4
same,SCMET N/F = number of animals protected relative to number tested,"[4]; 80 mg/kg, 2.0 h",0/4
same,SCMET N/F = number of animals protected relative to number tested,"[4]; 80 mg/kg, 4.0 h",0/4
same,SCMET N/F = number of animals protected relative to number tested,"[4]; 200 mg/kg, 0.25 h",2/4
same,SCMET N/F = number of animals protected relative to number tested,"[4]; 200 mg/kg, 0.5 h",0/4
same,SCMET N/F = number of animals protected relative to number tested,"[4]; 200 mg/kg, 1.0 h",0/4
same,SCMET N/F = number of animals protected relative to number tested,"[4]; 200 mg/kg, 2.0 h",1/4
same,SCMET N/F = number of animals protected relative to number tested,"[4]; 200 mg/kg, 4.0 h",1/4
same,MES N/F = number of animals protected relative to number tested,"[2]; 80 mg/kg, 0.25 h",0/4
same,MES N/F = number of animals protected relative to number tested,"[2]; 80 mg/kg, 0.5 h",0/4
same,MES N/F = number of animals protected relative to number tested,"[2]; 80 mg/kg, 1.0 h",0/4
same,MES N/F = number of animals protected relative to number tested,"[2]; 80 mg/kg, 2.0 h",0/4
same,MES N/F = number of animals protected relative to number tested,"[2]; 80 mg/kg, 4.0 h",0/4
same,MES N/F = number of animals protected relative to number tested,"[2]; 200 mg/kg, 0.25 h",0/4
same,MES N/F = number of animals protected relative to number tested,"[2]; 200 mg/kg, 0.5 h",1/4
same,MES N/F = number of animals protected relative to number tested,"[2]; 200 mg/kg, 1.0 h",0/4
same,MES N/F = number of animals protected relative to number tested,"[2]; 200 mg/kg, 2.0 h",1/4
same,MES N/F = number of animals protected relative to number tested,"[2]; 200 mg/kg, 4.0 h",0/4
same,TOX: N/F = number of animals that failed the rotarod test to numbers tested,"[3]; 200 mg/kg, 0.25 h",0/8
same,TOX: N/F = number of animals that failed the rotarod test to numbers tested,"[3]; 200 mg/kg, 0.5 h",0/8
same,TOX: N/F = number of animals that failed the rotarod test to numbers tested,"[3]; 200 mg/kg, 1.0 h",0/8
same,TOX: N/F = number of animals that failed the rotarod test to numbers tested,"[3]; 200 mg/kg, 2.0 h",0/8
same,TOX: N/F = number of animals that failed the rotarod test to numbers tested,"[3]; 200 mg/kg, 4.0 h",0/4
"O=C(O)/C=C/C=C1CCCCCCC1 [Compound 41d, (2E)-4-Cyclooctylidenebut-2-enoic Acid]",melting point,,114 to 116 °C
O=C([O-])/C=C/C=C1CCCC1.[Na+],Latency of Clonic Seizures,[1],589 s
same,Number of Mice Protected Against Clonic Seizures (Out of 10),[1],2
O=C([O-])/C=C/C=C1CCCCCC1.[Na+],Latency of Clonic Seizures,[1],778 s
same,Number of Mice Protected Against Clonic Seizures (Out of 10),[1],7
